Data: patent EP2545914A1, “2-amino-2-oxoethyl trans-3-[5-(6-methoxy-naphtalen-1-yl)-1,3-dioxan-2-yl]propyl-carbamate for use in the treatment of persistent cancer pain” (SANOFI, priority 2011, dated 2013)
Like-named read-outs stand apart in the source and are kept apart here.

Key:
[1] = tested on: mice inoculated with BO2 breast carcinoma cells; test: Tactile allodynia (Dynamic Plantar Aesthesiometer) in a model of bone metastatic cancer pain induced by BO2 cells; assay type: in vivo, female BALB/cByJ Ico-nu/nu mice; settings: for paw withdrawal thresholds to non-noxious stimulations versus vehicle-treated animals: p<0.0001; for Reversal of allodynia (%): T2h; for Delta values (Delta PWT): T2h minus T0
Experimental: The model of cancer pain MDA-MB-231 breast cancer cells cause the development of highly vascularized skeletal lesions in animals. Here, we chose to perform a model of bone metastasis induced by BO2 cells, a sub-clone of MDA-MB-231 cancer cells expressing the bioluminescent jellyfish protein (green fluorescent protein). BO2 cells were inoculated into the tail of nude mice. […] In our study, BO2 invasion of the hind paws was evaluated by combining both fluorescence imaging and X-Ray radiology with evaluation of allodynic-like behavior in the tumor-bearing hind paws. The aim of the study was to assess the anti-allodynic activity of Compound A in a model of bone metastatic cancer pain in mice, at the time when allodynia-like symptoms are fully developed.
Non-fasted female BALB/cByJ Ico-nu/nu mice (aged 4 weeks at the beginning of the experimental phase, Charles River Laboratories, L'Arbresle, France) were used for this study. One week before starting the experiment and to enable full acclimatization, mice were caged in groups of 10 animals per cage. They were housed in macrolon type III cages with filter hoods in a sterile room in which the air was continuously filtered to avoid any contamination. The sterility of the room was checked once a month and the cages were sterilized at 121°C for 30 minutes before use and changed twice a week. Room temperature was maintained at 22°C, and relative humidity at 60% ±10%. The animals were kept under a natural daylight cycle. The animals were fed with RO3 irradiated at 10 kGy, purchased from UAR (91360 Epinay sur Orge, France), and water sterilized at 121°C for 30 minutes. Water consumption was visually monitored daily and the bottles were changed twice a week. Food and water were given ad libitum. The animal bedding was produced by UAR and sterilized at 121°C for 30 minutes and renewed twice a week. One day before the beginning of the study, mice were implanted in the back with an electronic chip for identification purposes. The day of BO2 breast carcinoma inoculation into the tail vein, mice were placed in groups of 9 or 8 animals per cage. Tumor progression (fluorescence imaging +X-Ray radiology) associated with evoked pain behavior were measured at least once a week during the entire study (data available on request). This allowed us to ensure that only mice with tumor progression and pain-like behavior were selected to enter in the testing procedure.
Compound A as a base was prepared extemporaneously as follows: the compound was weighed and 0.5% of Tween 80 was added, followed by addition of 0.6% Methyl Cellulose. The resulting suspensions were maintained at room temperature under magnetic stirring until the administration. Compound A was administered via oral gavage in a volume of 10 mL/kg, once daily for 7 days. On the first day of treatment, Compound A was administered at 30 mg/kg. From day 2 to day 7, Compound A was administered at 10 mg/kg.
For the present study, 2 groups of 8 mice receiving the BO2 breast carcinoma cells and 1 group of 8 mice (control animals) receiving only the culture medium were used (Table 1.1). Table 1.1 - Design of the study
No animals were excluded for this study. However, one mouse died in one of the BO2-inoculated groups (mouse found dead in the cage on day 7), while no mice died in the control group (n = 8). No randomization was performed at the beginning of the experiment and mice were treated by cage. A seven day treatment with Compound A or vehicle was performed with evaluation of evoked pain at day 1, day 3 and day 7 post-treatment. As bone metastases were distributed in both hind-paws, we decided at the beginning of the study to arbitrarily measure pain-like behavior evoked by a stimulus in only one hind-paw (the right hind-paw). Pain-like behaviors before and after treatment with vehicle or Compound A were evaluated during 3 sessions (i.e. on day 1, day 3 and day 7). […]

[2] = tested on: UDP-glucuronosyl transferase; assay type: in vitro ADME, human; settings: for % Control (M6G formation) / % Control (M3G formation): Morphine 2mM, protein 0.5 mg/mL, 30 min
Experimental: Incubations were conducted in 2-mL polypropylene centrifuge tubes. Incubation mixtures containing HLM suspension and alamethicin (25 µg/mL) in 0.1 M potassium phosphate buffer (pH 7.4), were placed on wet ice for 5 min. […] Reactions were initiated by the addition of 50 mM UDPGA spiking solution. […] Samples were incubated aerobically in a water bath at 37 °C for the required amount of time and reactions terminated by the addition of 400 µL of the appropriate quench solution. The 2-mL centrifuge tubes were vortex mixed and stored in a -20 °C freezer for ca. 20 min prior to centrifugation at 13.3 x g, 4 °C for 10 min. Supernatants were analyzed by LC-MS/MS for morphine metabolites formation.
UGT-dependent activities were determined by monitoring the formation of enzyme specific metabolites from marker substrates. […] Incubation with selective inhibitors (positive control) was performed at a concentration above their established IC50 for the confirmation of enzyme activity and inhibitory effects.
Incubations were performed in 2-mL centrifuge tubes. Incubation mixtures containing HLM suspension and alamethicin (25 µg/mL) in 0.1 M potassium phosphate buffer (pH 7.4), were placed on wet ice for 5 min. […] Reactions were initiated by the addition of UDPGA. The final incubation mixture contained 0.5 mg/mL HLM, 2 mM MgCl2, 5 mM UDPGA, various concentration of Compound A or a selective inhibitor. Samples were incubated aerobically in a water bath at 37 °C for 30 min. The incubation systems were terminated by the addition of a 400-µL quenching solution. The 2-mL centrifuge tubes were vortex mixed and stored in a -20 °C freezer for approximately 20 min prior to centrifugation at 13.3 x g, 4 °C for 10 min. Supernatants were analyzed by LC-MS/MS.
Percent of Control = Cmet÷Ccontrol × 100% [formula] • Cmet: Concentration of the metabolite in the incubations in the presence of Compound A or selective inhibitor • Ccontrol: Concentration of the enzyme-specific metabolite in the incubations in the absence of Compound A and selective inhibitor • The IC50 for Compound A was estimated by non-linear regression analysis of individual sets of percent inhibition values using GraphPad Prism 5.

With `COc1ccc2c(cccc2[C@H]2CO[C@H](CCCNC(=O)OCC(N)=O)OC2)c1` [Compound A, 2-amino-2-oxoethyl trans-3-[5-(6-methoxy-naphtalen-1-yl)-1,3-dioxan-2-yl]propyl-carbamate] the “paw withdrawal thresholds to non-noxious stimulations versus vehicle-treated animals” value ([1]; 10 mg/kg PO once daily, day 3 and day 7) was “significantly higher”, the “Reversal of allodynia (%)” value ([1]; Day 3, 10 mg/kg PO) was 45.06 ±3.11% and the “Delta values (Delta PWT)” value ([1]; Day 3, 10 mg/kg PO) was 0.78 ±0.06. The “Reversal of allodynia (%)” value ([1]; Day 7, 10 mg/kg PO) was 41.87 ±4.01%, the “Delta values (Delta PWT)” value ([1]; Day 7, 10 mg/kg PO) was 0.79 ±0.08 and the “evoked-pain induced by bone metastases in the hind-paw” value ([1]; acute oral dosing, allodynia fully installed) was “significantly reversed”. The “Reversal of allodynia (%)” value ([1]; day 1, 30 mg/kg PO, Mean ±SEM) was 68.74 ±8.99%, the “Delta values (Delta PWT)” value ([1]; day 1, 30 mg/kg PO, Mean ±SEM) was 1.04 ±0.13 and the “PWT values at T0” value ([1]; day 1, T0 (baseline before administration), group dosed 30 mg/kg PO, Mean ±SEM) was 1.815 ±0.065 gram. For the same molecule, the “PWT values at T0” value ([1]; day 7, T0 (before that day's administration), 10 mg/kg PO once daily, Mean ±SEM) was 1.728 ±0.050 gram, the “paw withdrawal thresholds to non-noxious stimulations versus vehicle-treated animals” value ([1]; first day, 30 mg/kg PO) was “significantly higher” and the “tolerance in analgesic effect” value ([1]; repeated (7 days) administration) was “did not induce tolerance”. The “IC50 (M3G and M6G formation)” value ([2]; 2 mM morphine, Compound A 0.5 to 250 µM, HLM) was “could not be estimated”, the “% Control (M6G formation)” value ([2]; Compound A 0.5 µM) was 96.9% and the “% Control (M6G formation)” value ([2]; Compound A 1.0 µM) was 94.4%. The “% Control (M6G formation)” value ([2]; Compound A 5.0 µM) was 102.4%, the “% Control (M6G formation)” value ([2]; Compound A 10 µM) was 110.4% and the “% Control (M6G formation)” value ([2]; Compound A 25 µM) was 105.8%. For the same molecule, the “% Control (M6G formation)” value ([2]; Compound A 50 µM) was 108.3%, the “% Control (M6G formation)” value ([2]; Compound A 100 µM) was 97.4% and the “% Control (M6G formation)” value ([2]; Compound A 250 µM) was 96.5%. For the same molecule, the “% Control (M3G formation)” value ([2]; Compound A 0.5 µm) was 97.7%, the “% Control (M3G formation)” value ([2]; Compound A 1.0 µm) was 96.2% and the “% Control (M3G formation)” value ([2]; Compound A 5.0 µm) was 106.0%. The “% Control (M3G formation)” value ([2]; Compound A 10 µm) was 107.9%, the “% Control (M3G formation)” value ([2]; Compound A 25 µm) was 108.3% and the “% Control (M3G formation)” value ([2]; Compound A 50 µm) was 105.7%. The “% Control (M3G formation)” value ([2]; Compound A 100 µm) was 92.7%, the “% Control (M3G formation)” value ([2]; Compound A 250 µm) was 94.2% and the “drug interaction with morphine” value ([2]; according to in vitro results) was “no significant drug interaction”. The “inhibition of morphine metabolism” value ([2]; human liver microsomes, M3G and M6G formation) was “no inhibition”.

For `CC(=O)N1CCN(c2ccc(OCC3COC(Cn4ccnc4)(c4ccc(Cl)cc4Cl)O3)cc2)CC1` (centres unmarked) [ketoconazole, reference compound], the “inhibition of M6G activity” value ([2]; positive control, same conditions (2 mM morphine, HLM 0.5 mg/mL, 30 min)) was no less than 98.5%.
